Values of other authors in article PMC9307173, “OX2R-selective orexin agonism is sufficient to ameliorate cataplexy and sleep/wake fragmentation without inducing drug-seeking behavior in mouse model of narcolepsy” (PLoS ONE, 2022).
“Also recorded” adds a separate entry of the source.

What was measured:
addiction-like behaviors = conditions: OX1R-selective antagonist
Source text: Orexin also activates the reward system. Orexin neurons in the LH project to the dopaminergic reward system in the ventral tegmental area (VTA), and promote the dopamine release in the nucleus accumbens and the prefrontal cortex, potentially inducing addiction-like behaviors and reinforcing effects. Orexin-mediated neural signaling also contributes to the development of addiction to drugs of abuse such as cocaine, morphine and nicotine. Anatomically, both OX1R and OX2R are present in VTA, with dopaminergic neurons predominantly expressing OX1R ...

[1] = system: orexin knockout and orexin neuron-ablated mice; design: method as in PMID 28507129

SMILES: Cc1nc2ccc(NC(=O)Nc3ccnc4cccnc34)cc2o1 [SB334867]
- addiction-like behaviors induced by drugs of abuse or OXA (in words) (addiction-like behaviors): inhibited

SMILES: COc1ccc(-c2cccc(C(=O)N(C)C)c2)cc1S(=O)(=O)Nc1cccc(NCCNC(=O)c2ccccc2N(C)C)c1 [YNT-185]
- wakefulness promotion (in words) ([1]; mouse models of narcolepsy): promotes wakefulness
- cataplexy-like episodes (in words) ([1]; mouse models of narcolepsy / OXKO mice): effectively suppressed cataplexy-like episodes; also recorded: ameliorates cataplexy-like episodes
- wake fragmentation (in words) ([1]; narcoleptic model mice / OXKO mice): did not appreciably ameliorate the wake fragmentation; also recorded: did not sufficiently suppress the active-phase fragmentation of wakefulness
